In PMC3566758 (Beilstein Journal of Organic Chemistry, 2013):
Converted amounts (≈) assume the structure as drawn. Read-outs that look alike come from different tables or passages of the source.

Tests used:
[1] = test system: measles virus (MeV) recombinant; experiment: microbe, parasite or virus in culture; assay type: cell-based; details: for EC50: Measles morbillivirus
[2] = microbe, parasite or virus in culture; assay type: cell-based; details: Influenza A virus, WSN, read-out: EC50 WSN
[3] = test system: measles virus (MeV); experiment: measles virus cytopathic effect (CPE) reduction assay; assay type: cell-based; details: Measles morbillivirus, read-out: MeV (CPE) 50% inhibitory concentration
Description: A small set of compounds was synthesized based on variations of 1 by replacing the p-methoxyphenyl group with other substituted phenyl rings or heterocyclic rings. The compounds were initially assayed in two screening assays: (1) a measles virus cytopathic effect (CPE) reduction assay and (2) a solubility assay based on laser nephelometry. Unfortunately, compounds with the highest aqueous solubilities (>100 µg/mL) had the poorest antiviral activity (i.e., 18a and 18e, Table 1).

[4] = physchem
[5] = in vitro
[6] = test system: MeV; experiment: virus yield reduction assay; assay type: cell-based; details: Measles morbillivirus, read-out: MeV 50% inhibitory concentration, virus yield reduction assay
[7] = design: method as in earlier work; details: ref 15 (Pharmacokinetics Study of JMN3-003. Unpublished results); cited from earlier work
[8] = averages of four experiments, highest concentration assessed 75 μM
[9] = pH 7.4, aqueous buffer, kinetic from dmso stock
[10] = pH 3, aqueous buffer, kinetic from dmso stock
[11] = pH 5, aqueous buffer, kinetic from dmso stock

| SMILES | EC50 ([1]; read-out: EC50 MeV) | EC50 [2] | IC50 [3, 8] | solubility [4, 9] | CC50 [5] | further results |
| --- | --- | --- | --- | --- | --- | --- |
| Cc1ccc(NC(=O)[C@@H](C)Sc2nc3ccccc3n2-c2ccccc2CN2CCN(C)CC2)c(Cl)c1 [(R)-14a] | 470 nM | 120 nM |  |  |  |  |
| Cc1ccc(NC(=O)C(C)Sc2nc3ccccc3n2N2CCN(C)CC2)c(Cl)c1 (stereo not shown) [Compound 18c] |  |  | > 75000 nM | < 15 µg/mL |  |  |
| Cc1ccc(NC(=O)C(C)Sc2nc3ccccc3n2-c2ccccc2CN2CCN(C)CC2)c(Cl)c1 (stereo not shown) [Compound 14a] | 41 nM | 8 nM | 179 nM | 20 µg/mL (≈ 37.4 µM) |  | solubility [4, 10]: > 300 µg/mL; solubility [4, 11]: 92 µg/mL (≈ 172 µM) |
| Cc1ccc(NC(=O)C(C)Sc2nc3ccccc3n2-c2cccc(CCN3CCOCC3)c2)c(Cl)c1 (stereo not shown) [Compound 14b] | 13 nM | 0.3 nM | 200 nM | 15 µg/mL (≈ 28 µM) | > 50000 nM | solubility [4, 10]: 158 µg/mL (≈ 295 µM); solubility [4, 11]: 33 µg/mL (≈ 61.7 µM) |
| Cc1ccc(NC(=O)C(C)Sc2nc3ccccc3n2CCN2CCOCC2)c(Cl)c1 (stereo not shown) [Compound 18d] |  |  | 4900 nM | 22 µg/mL (≈ 47.9 µM) |  |  |
| Cc1ccc(NC(=O)C(C)Sc2nc3ccccc3n2-c2cccc(CCn3ncnn3)c2)c(Cl)c1 (stereo not shown) [Compound 18g] |  |  |  | < 15 µg/mL |  | IC50 [6]: 50 nM |
| COc1ccc(-n2c(S[C@@H](C)C(=O)Nc3ccc(C)cc3Cl)nc3ccccc32)cc1 [(S)-1] | 37 nM | 5 nM |  |  | > 50000 nM |  |
| Cc1ccc(NC(=O)C(C)Sc2nc3ccccc3n2CCN2CCNCC2)c(Cl)c1 (stereo not shown) [Compound 18e] |  |  | > 75000 nM | 120 µg/mL (≈ 262 µM) |  | solubility ([4]; pH 7.4): > 100 µg/mL |
| Cc1ccc(NC(=O)[C@@H](C)Sc2nc3ccccc3n2-c2cccc(CCN3CCOCC3)c2)c(Cl)c1 [(R)-14b] | 210 nM | 110 nM |  |  | > 50000 nM |  |
| Cc1ccc(NC(=O)[C@H](C)Sc2nc3ccccc3n2-c2cccc(CCN3CCOCC3)c2)c(Cl)c1 [(S)-14b] | 11 nM | 1 nM |  |  | > 50000 nM | EC50 ([1]; WSN, read-out: EC50 values against the two viruses): 1 to 11 nM |
| Cc1ccc(NC(=O)[C@H](C)Sc2nc3ccccc3n2-c2ccc(CCN3CCOCC3)cc2)c(Cl)c1 [(S)-14c] | 180 nM | 36 nM |  |  |  |  |
| Cc1ccc(NC(=O)C(C)Sc2nc3ccccc3n2-c2cccc(CN3CCOCC3)c2)c(Cl)c1 (stereo not shown) [Compound 18f] |  |  | 270 nM | < 15 µg/mL |  |  |
| COc1ccc(-n2c(SC(C)C(=O)Nc3ccc(C)cc3Cl)nc3ccccc32)cc1 (stereo not shown) [Compound 1] | 31 nM | 13 nM | 3100 nM | < 15 µg/mL | > 50000 nM | solubility [4]: < 15 µg/mL; solubility [4, 10]: < 15 µg/mL; solubility [4, 11]: < 15 µg/mL; oral bioavailability [7]: low |
| Cc1ccc(NC(=O)C(C)Sc2nc3ccccc3n2C2CCCN(C)C2)c(Cl)c1 (stereo not shown) [Compound 18b] |  |  |  | 19 µg/mL (≈ 42.9 µM) |  | IC50 [3]: > 290 nM |
| Cc1ccc(NC(=O)[C@H](C)Sc2nc3ccccc3n2-c2ccccc2CN2CCN(C)CC2)c(Cl)c1 [(S)-14a] | 68 nM | 4 nM |  |  | 25000 nM |  |
| COc1ccc(-n2c(S[C@H](C)C(=O)Nc3ccc(C)cc3Cl)nc3ccccc32)cc1 [(R)-1] | 880 nM | 160 nM |  |  | > 50000 nM |  |
| Cc1ccc(NC(=O)C(C)Sc2nc3ccccc3n2-c2ccc(CCN3CCOCC3)cc2)c(Cl)c1 (stereo not shown) [Compound 14c] | 110 nM | 43 nM | 600 nM | 25 µg/mL (≈ 46.7 µM) |  | solubility [4, 10]: 212 µg/mL (≈ 396 µM); solubility [4, 11]: 51 µg/mL (≈ 95.3 µM); ΔEC50, (S)-enantiomer versus (R)-enantiomer ([1]; MeV and WSN EC50 comparisons): < 3 fold |
| Cc1ccc(NC(=O)[C@@H](C)Sc2nc3ccccc3n2-c2ccc(CCN3CCOCC3)cc2)c(Cl)c1 [(R)-14c] | 530 nM | 120 nM |  |  |  |  |
